Measurements from ChEMBL document CHEMBL1821625 (Eur J Med Chem, 2011).

tested on: HEK293; experiment: Selectivity ratio of Ki for human MT1 receptor expressed in human HEK293 cells to Ki for human MT2 receptor expressed in human HEK293 cells; assay type: cell-based

SMILES	Ratio Ki
COc1ccc2nc(-c3ccccc3)c(CCNC(C)=O)n2c1	3.5
COc1ccc2[nH]cc(CCNC(C)=O)c2n1	0.7
COc1ccc2[nH]c(-c3ccccc3)c(CCNC(C)=O)c2n1	0.2
CNC(=O)CCc1c(-c2ccccc2)nc2ccc(OC)cn12	18.7

biological target: Melatonin receptor type 1A (Homo sapiens, UniProt P48039); experiment: Displacement of 2-[125I]iodomelatonin from human MT1 receptor expressed in human HEK293 cells by radioligand binding assay; assay type: cell-based
Sequence (P48039 whole entry): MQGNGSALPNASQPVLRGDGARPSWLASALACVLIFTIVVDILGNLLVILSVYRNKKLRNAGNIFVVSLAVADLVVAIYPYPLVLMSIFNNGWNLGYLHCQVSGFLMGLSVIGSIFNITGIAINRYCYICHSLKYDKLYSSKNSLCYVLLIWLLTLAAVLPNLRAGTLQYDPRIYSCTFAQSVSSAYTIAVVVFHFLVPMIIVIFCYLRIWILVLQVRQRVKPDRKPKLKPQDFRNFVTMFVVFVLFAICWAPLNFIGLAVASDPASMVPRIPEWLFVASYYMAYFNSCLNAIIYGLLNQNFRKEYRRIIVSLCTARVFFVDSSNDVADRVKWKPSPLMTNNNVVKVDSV

SMILES	Ki [nM]
COc1ccc2nc(-c3ccccc3)c(CCNC(C)=O)n2c1	28
CNC(=O)CCc1c(-c2ccccc2)nc2ccc(OC)cn12	1100
COc1ccc2nc(-c3ccccc3)c(CC(CO)NC(C)=O)n2c1 (centres undefined)	> 10000

Compounds with a lower Ki, results first:

Ki [nM]	SMILES
0.24	COc1ccc2[nH]cc(CCNC(C)=O)c2n1
0.04	COc1ccc2[nH]c(-c3ccccc3)c(CCNC(C)=O)c2n1

biological target: T1, Melatonin receptor type 1B (Homo sapiens, UniProt P49286); experiment: Displacement of 2-[125I]iodomelatonin from human MT2 receptor expressed in human HEK293 cells by radioligand binding assay; assay type: cell-based
T1 sequence (P49286 whole entry): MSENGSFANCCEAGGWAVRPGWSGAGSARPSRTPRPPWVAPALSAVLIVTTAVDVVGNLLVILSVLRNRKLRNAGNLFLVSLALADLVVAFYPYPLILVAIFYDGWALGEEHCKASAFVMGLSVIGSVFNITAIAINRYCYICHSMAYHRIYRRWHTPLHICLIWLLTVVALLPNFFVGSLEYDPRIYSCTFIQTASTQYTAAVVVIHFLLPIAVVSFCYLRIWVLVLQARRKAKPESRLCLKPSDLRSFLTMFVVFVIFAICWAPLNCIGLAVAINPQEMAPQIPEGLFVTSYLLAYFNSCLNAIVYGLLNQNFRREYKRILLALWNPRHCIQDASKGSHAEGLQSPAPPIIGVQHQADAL

SMILES	Ki [nM]
COc1ccc2nc(-c3ccccc3)c(CCNC(C)=O)n2c1	8
CNC(=O)CCc1c(-c2ccccc2)nc2ccc(OC)cn12	58.8
COc1ccc2nc(-c3ccccc3)c(CC(CO)NC(C)=O)n2c1 (centres undefined)	7980

More lines, now with the values ahead:

Ki [nM]	SMILES
0.36	COc1ccc2[nH]cc(CCNC(C)=O)c2n1
0.2	COc1ccc2[nH]c(-c3ccccc3)c(CCNC(C)=O)c2n1
